The target of assay [1] is T1, Mu-type opioid receptor (Cavia porcellus, UniProt P97266). Kind of assay: Negative logarithm of the molar concentration for agonist activity at mu receptor was determined in guinea pig ileum. It counts as functional, tissue-based.
The target of assay [2] is T2, Delta-type opioid receptor (Mus musculus, UniProt P32300). Kind of assay: (§1) Negative logarithm of the molar concentration of delta receptor was determined in mouse vas deferens. Particulars: read-out: pA2 (converted). It counts as functional.
Assay [3] deals with T1, Mu-type opioid receptor. Description: Negative logarithm of the molar concentration for agonist activity at Opioid receptor mu 1 was determined in guinea pig ileum. The assay is classed as functional, tissue-based.
Assay [4] concerns the target Delta-type opioid receptor (Mus musculus) (UniProt P32300). Kind of assay: Negative logarithm of the molar concentration of delta receptor was determined in mouse vas deferens; i represents inactivity up to 1 mM. It counts as functional.
The target is the same in assay [5].
The target of assay [6] is T2, Delta-type opioid receptor. The description is as §1. Particulars: read-out: pA2 (converted).

Calls of active or inactive are those of the source. The rule behind the calls is not given here. Square brackets hold non-standard residues; d marks the D form. Peptide text beside a SMILES is read from it. ξ: configuration not given here. Dmt = Cc1cc(O)cc(C)c1C[C@H](N)C(=O)O; ξTic = O=C(O)C1Cc2ccccc2CN1

T1 sequence (P97266 whole entry): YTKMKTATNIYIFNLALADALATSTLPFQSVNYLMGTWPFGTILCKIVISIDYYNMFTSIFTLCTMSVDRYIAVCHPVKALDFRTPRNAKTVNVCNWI
T2 sequence (P32300 whole entry): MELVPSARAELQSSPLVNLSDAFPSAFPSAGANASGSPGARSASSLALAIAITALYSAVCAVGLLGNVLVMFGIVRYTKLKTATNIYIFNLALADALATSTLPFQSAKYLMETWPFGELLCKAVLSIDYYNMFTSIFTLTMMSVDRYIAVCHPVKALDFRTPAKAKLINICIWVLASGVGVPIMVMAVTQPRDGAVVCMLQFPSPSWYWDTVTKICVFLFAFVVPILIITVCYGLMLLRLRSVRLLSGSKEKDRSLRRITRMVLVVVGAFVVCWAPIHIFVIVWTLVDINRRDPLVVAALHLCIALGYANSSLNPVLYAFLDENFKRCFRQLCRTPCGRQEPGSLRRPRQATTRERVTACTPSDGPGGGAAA
Sequence of Delta-type opioid receptor (Mus musculus) (P32300 whole entry): as above

In general, EC50 refers to the concentration at which the effect is half-maximal. A lower EC50 goes with higher potency in that assay. In turn, `C[C@@H](NC(=O)[C@@H](N)Cc1ccc(O)cc1)C(=O)N[C@@H](Cc1ccccc1)C(=O)NCC(=O)N[C@@H](Cc1ccc(O)cc1)C(=O)N1CCC[C@H]1C(=O)N[C@@H](CO)C(N)=O` [DERMORPHIN] had an EC50 on Mu-type opioid receptor [1] of 0.00158 µM.

For the molecule `Cc1cc(O)cc(C)c1C[C@H](N)C(=O)N1Cc2ccccc2CC1C(N)=O` (some centres undefined) (H-[Dmt]-[ξTic]-NH2), the Kb in assay [2] is 0.0631 µM. At Mu-type opioid receptor [3], this molecule showed an EC50 of over 10 µM. Moreover, the “Log EC50” value in assay [4] is “inactive”.

Turning to `Cc1cc(O)cc(C)c1C[C@H](N)C(=O)N1Cc2ccccc2CC1CO` (some centres undefined), in assay [2], the Kb is 0.1 µM. For the same molecule, the EC50 at Mu-type opioid receptor [3] was over 10 µM. In addition, in assay [4], the “Log EC50” value is “inactive”.

For the molecule `Cc1cc(O)cc(C)c1C[C@H](N)C(=O)N1CCc2ccc(F)cc2C1`, the “Log EC50” value in assay [5] was “inactive”. The Kb in assay [6] is 0.617 µM. This molecule had an EC50 at Mu-type opioid receptor [1] of 0.631 µM.

As for `Cc1cc(O)cc(C)c1C[C@H](N)C(=O)N1Cc2ccccc2CC1COCc1ccccc1` (some centres undefined), the “Log EC50” value in assay [5] was “inactive”. Moreover, the Kb in assay [6] is 0.0135 µM. On Mu-type opioid receptor [1], this molecule showed a half-maximal effective concentration (EC50) of 0.525 µM.

In the case of `Cc1cc(O)cc(C)c1C[C@H](N)C(=O)N1CCc2ccccc2C1`, the Kb in assay [6] was 0.0389 µM. The EC50 on Mu-type opioid receptor [1] was 0.49 µM. Besides, the “Log EC50” value in assay [4] was “inactive”.

Take `Cc1cc(O)cc(C)c1C[C@H](N)C(=O)N1Cc2ccc(F)cc2CC1C(=O)O` (some centres undefined): in assay [5], the “Log EC50” value is “inactive”. In addition, the Kb in assay [6] was 0.0355 µM. For the same molecule, a half-maximal effect at Mu-type opioid receptor [1] (EC50) was put at 0.813 µM.

The values above are taken from ChEMBL document CHEMBL1132844, “Assessment of substitution in the second pharmacophore of Dmt-Tic analogues” (Bioorg Med Chem Lett, 2000).
